Experimental data reported in patent US20140234318A1, “TUMOR SPECIFIC OLIGOSACCHARIDE EPITOPES AND USE THEREOF” (GLYKOS FINLAND OY, priority 2002, published 2014).

What was measured:
Helicobacter pylori [1] = experiment: Receptor activity of oligosaccharides for Helicobacter pylori; type: binding; details: relative to the non-galactosylated receptor
Method: The structure is changed to 10-fold weaker receptor structure Galβ4GlcNAcβ3Galβ4GlcNAcβ3Galβ4Glc by incubating it with UDP-Gal and β4-galactosyltransferase from bovine milk. b) The oligosaccharide receptor GlcNAcβ3Galβ4GlcNAcβ3Galβ4Glc is incubated with GDP-Fuc and soluble human fucosyltransferase VI corresponding to major the fucosyltransferase from human milk. MALDI-TOF mass spectrometric analysis reveled a major peak corresponding to GlcNAcβ3Galβ4(Fucα3)GlcNAcβ3Galβ4Glc, the structure is confirmed by NMR-spectroscopy. c) Erythrocytes from a patient suffering from glycosylation deficiency causing high levels of terminal GlcNAc-structures including GlcNAcβ3Galβ4GlcβCer are incubated with radiolabeled UDP-Gal and βgalactosyltransferase. Transfer of labeled galactose on the cell surface is observed. The galactosylation of the cells reduces the reactivity of the cells with anti-GlcNAc-antibodies.

[2] = tested on: IgG antibodies against specific carbohydrate epitopes in serum of cancer patients; experiment: ELISA of serum IgG antibodies binding to synthetic glycoconjugates; parameters: species or system human; details: for serum antibody levels against the epitope, summary in words: IgG and IgM, group of four cancer patients
From the text: (§1) A group of four people with various stages of diagnosed cancer of the gastrointestinal tract or the ovary, was studied by analyzing serum samples for their concentrations of IgG and IgM antibodies against specific carbohydrate epitopes. The assay consisted of binding of specific antibodies from serum to synthetic glycoconjugates, washing, and then detecting the specifically bound antibody levels in ELISA with enzyme-labelled anti-human IgG or anti-human IgM secondary antibodies and quantitation of specific reaction products.

[3] = tested on: IgM antibodies against specific carbohydrate epitopes in serum of cancer patients; experiment: ELISA of serum IgM antibodies binding to synthetic glycoconjugates; parameters: species or system human
From the text: as §1

[4] = tested on: recombinant β1,4-galactosyltransferase similar to the enzyme described in (Ramakrishnan and Qasba, 2002); experiment: Transfer of modified galactosamine from UDP-GalN conjugates to terminal GlcNAc acceptor by modified galactosyltransferase; type: biochemical, bovine; details: MALDI-TOF MS of the product
[5] = tested on: terminal GlcNAc residues in lung adenocarcinoma tissue sections; experiment: Labeling of terminal GlcNAc residues in tissue sections with UDP-GalN-biotin; parameters: species or system human; details: streptavin-FITC, fluorescence microscopy
Method: In a typical procedure, an oligosaccharide acceptor such as GlcNAcβ1-3Galβ1-4GlcNAcβ1-3Galβ1-4Glc, or deparaffinised formalin-fixed paraffin-embedded tissue sections, are incubated at + 37° C. with a reaction mixture containing 10 mM UDP-GalN-biotin, 160 U/l enzyme, 100 mM Tris-HCl, and 20 mM MnCl2. After washing, the biotin groups are visualised by standard methods in the art, using streptavidin or avidin coupled reagents, for example streptavidin-FITC.

Helicobacter pylori [6] = details: cited from earlier work
[7] = tested on: endogenous galactosyltransferase activity of human serum; experiment: Activation of endogenous galactosyltransferase activity of human serum; type: biochemical
Method: Fresh human blood sample was collected from blood group B-individual (5 ml). After clotting for 30 min it was centrifuged at +4° C., 2000 rpm for 25 minutes, and the serum was collected for experiments (2 ml, stored on ice).
Reactions were performed with 50 nmol of acceptor saccharide (GlcNAcβ1-3Galβ1-4GlcNAc, from enzymatic synthesis, purified by ion exchange and gel filtration, characterized by NMR and mass spectrometry), 5 nmol UDP-[^14C]Gal (mixture of nonlabelled and radioactive, radioactivity was 100 000 cpm) and 20 μl of fresh human serum (total volume was 20 μl). Reaction conditions were varied by adding cations and bovine milk β1,4-galactosyltransferase (β1,4GalT).

Molecule	serum antibody levels against the epitope, summary in words [2]	antibody signal intensity from which the assay background has been subtracted ([2]; Patient 1, IgG)	antibody signal intensity from which the assay background has been subtracted ([2]; Patient 2, IgG)	antibody signal intensity from which the assay background has been subtracted ([2]; Patient 3, IgG)	antibody signal intensity from which the assay background has been subtracted ([2]; Patient 4, IgG)	antibody signal intensity from which the assay background has been subtracted ([3]; Patient 1, IgM)	antibody signal intensity from which the assay background has been subtracted ([3]; Patient 2, IgM)	antibody signal intensity from which the assay background has been subtracted ([3]; Patient 3, IgM)	antibody signal intensity from which the assay background has been subtracted ([3]; Patient 4, IgM)	other results
CC(=O)N[C@H]1[C@H](O[C@H]2[C@@H](O)[C@@H](CO)O[C@@H](O[C@H]3[C@H](O)[C@@H](NC(C)=O)[C@H](O[C@H]4[C@@H](O)[C@@H](CO)O[C@@H](O[C@H]5[C@H](O)[C@@H](O)C(O)O[C@@H]5CO)[C@@H]4O)O[C@@H]3CO)[C@@H]2O)O[C@H](CO)[C@@H](O[C@@H]2O[C@H](CO)[C@H](O)[C@H](O)[C@H]2O)[C@@H]1O (stereo partly shown) [Galβ4GlcNAcβ3Galβ4GlcNAcβ3Galβ4Glc]	–	–	–	–	–	–	–	–	–	receptor strength for Helicobacter pylori, weaker than GlcNAcβ3Galβ4GlcNAcβ3Galβ4Glc (Helicobacter pylori [1]): 10 fold
GlcNAcβ1-3GalNAcα-O—CH2—R [Saccharide 5]	identical pattern of antibody type response	0.017	0.094	0	0	0.125	0.041	0.011	0.056	–
GlcNAcβ1-2Manα1-6(GlcNAcβ1-2Manα1-3)Manβ1-4GlcNAcβ1-4(Fucα1-6)GlcNAcβ-N-Asn-R [Saccharide 1]	elevated in one patient	0	0	0.006	0	0	0	0.01	0	–
GlcNAcβ1-6(Galβ1-3)GalNAcα-O—CH2—R [Saccharide 3]	elevated in the whole patient group	0.039	0.078	0	0	0.091	0.008	0.068	0.042	–
GlcNAcβ-O—CH2—R [Saccharide 4]	Two patients showed elevated serum levels of mainly IgM and one patient mainly IgG	0	0.082	0.013	0	0.159	0.029	0.122	0	–
uridine 5′-diphospho-N-(6-biotinamidohexanoyl)galactosamine [UDP-GalN-biotin]	–	–	–	–	–	–	–	–	–	transfer of the modified galactosamine residue to a terminal GlcNAc acceptor [4]: reacted; labeling of cancer cells in tissue sections [5]: cancer cells could be labeled
CC(=O)N[C@H]1[C@H](O[C@H]2[C@@H](O)[C@@H](CO)O[C@@H](O[C@H]3[C@H](O)[C@@H](O)C(O)O[C@@H]3CO)[C@@H]2O)O[C@H](CO)[C@@H](O[C@@H]2O[C@H](CO)[C@H](O)[C@@H](O[C@@H]3O[C@H](CO)[C@@H](O)[C@H](O)[C@H]3NC(C)=O)[C@H]2O)[C@@H]1O (stereo partly shown) [GlcNAcβ3Galβ4GlcNAcβ3Galβ4Glc]	–	–	–	–	–	–	–	–	–	receptor for Helicobacter pylori (Helicobacter pylori [6]): receptor for the gastric pathogen Helicobacter pylori
[Cl][Mn][Cl] [MnCl2]	–	–	–	–	–	–	–	–	–	Product ([7]; 0.2 mM MnCl2, no external β1,4GalT): 457 cpm; Product ([7]; 1 mM MnCl2, no external β1,4GalT): 1073 cpm; Product ([7]; 5 mM MnCl2, no external β1,4GalT): 566 cpm
